Source: US6251894A, “1-(1,2-disubstituted piperidinyl)-4 (fused imidazole)-piperidine derivatives” (Janssen Pharmaceuticals N.V., priority 1995, dated 2001)

The compounds below were run on Substance P Induced Relaxation of the Pig Coronary Arteries (assay: Antagonism of substance P induced relaxation of the pig coronary arteries). Settings: test compound concentration 3 × 10^-9 (unit not given), 30 min incubation.
Procedure: Antagonism of Substance P Induced Relaxation of the Pig Coronary Arteries
Segments of coronary arteries taken from pigs (killed by injection of an overdose of sodium pentobarbital) were inverted and mounted for recording of isometric tension in organ baths (volume 20 ml) with the endothelium at the outside. The preparations were bathed in Krebs-Henseleit solution. The solution was kept at 37° C. and gassed with a mixture of O2 /CO2 (95/5). After stabilisation of the preparations, prostaglandin F2α (10^-5 M) was administered to induce a contraction. This was repeated until contractile responses became stable. Then prostaglandin F2α was again administered and substance P (3×10^-10 M and 10^-9 M cumulatively) was added. Substance P induced endothelium dependent relaxations. After washing away the agonists, a known concentration of a compound of formula (I) was added. After an incubation period of 30 minutes, prostaglandin F2α (10^-5 M) and the same concentrations of substance P as described above were again administered in the presence of the compound to be tested.

Compound	% inhibition of the response to 10^-9 M substance P
Cc1cc(C)cc(C(=O)N2CC[C@H](N3CCC(=C4c5ccsc5CCn5ccnc54)CC3)C[C@@H]2Cc2ccccc2)c1 (relative stereo) [Compound 38]	27.1%
O=C(c1cc2cc(F)ccc2[nH]1)N1CC[C@H](N2CCC(=C3c4ccccc4CCn4ccnc43)CC2)C[C@@H]1Cc1ccccc1 (relative stereo) [Compound 89]	1.1%
O=C(c1cc(C(F)(F)F)cc(C(F)(F)F)c1)N1CC[C@H](N2CCC(=C3c4ccccc4CCn4c3nc3ccccc34)CC2)C[C@@H]1Cc1ccccc1 (relative stereo) [Compound 71]	53.1%
O=C(c1cc(C(F)(F)F)cc(C(F)(F)F)c1)N1CC[C@H](N2CCC(C3c4ccccc4CCn4c3nc3ccccc34)CC2)C[C@H]1Cc1ccc(F)c(F)c1 (stereo partly drawn) [Compound 68]	93.1%
O=C(c1cc(Cl)cc(Cl)c1)N1CC[C@H](N2CCC(=C3c4ccccc4CCn4ccnc43)CC2)C[C@H]1Cc1ccccc1 (relative stereo) [Compound 48]	59.7%
O=C(c1ccc2ccccc2c1)N1CCC(N2CCC(C3c4ccccc4Cn4c3nc3ccccc34)CC2)CC1Cc1ccccc1 (stereo not drawn) [Compound 92]	6.7%
Cc1cc(C)cc(C(=O)N2CC[C@H](N3CCC(=C4c5ccccc5CCn5c4nc4ccccc45)CC3)C[C@H]2Cc2ccccc2)c1 (relative stereo) [Compound 46]	54.3%
O=C(c1cc(C(F)(F)F)cc(C(F)(F)F)c1)N1CC[C@@H](N2CCC(C3c4ccccc4CCn4c3nc3ccccc34)CC2)C[C@@H]1Cc1ccc(Cl)c(Cl)c1 (mixture of isomers) [Compound 63, (±)-trans-1-[3,5-bis(trifluoromethyl)benzoyl]-2-[(3,4-dichlorophenyl)methyl]-4-[4-(11,12-dihydro-6H-benzimidazo[2,1-b][3]benzazepin-6-yl)-1-piperidinyl]piperidine]	61.4%
O=C(c1ccc2ccccc2c1)N1CC[C@@H](N2CCC(C3c4ccccc4Cn4c3nc3ccccc34)CC2)C[C@@H]1Cc1ccccc1 (stereo partly drawn) [Compound 98]	23.2%
CC(C(=O)N1CC[C@@H](N2CCC(C3c4ccccc4Cn4c3nc3ccccc34)CC2)C[C@@H]1Cc1ccccc1)c1ccccc1 (stereo partly drawn) [Compound 99]	18.2%
Cc1cc(C)cc(C(=O)N2CC[C@H](N3CCC(C4c5ccccc5CCn5c4nc4ccccc45)CC3)C[C@H]2Cc2ccccc2)c1 (stereo partly drawn) [Compound 66]	56.6%
O=C(c1cccc(C(F)(F)F)c1)N1CCC(N2CCC(C3c4ccccc4Cn4c3nc3ccccc34)CC2)CC1Cc1ccccc1 (stereo not drawn) [Compound 74]	8.6%
Cc1cn2c(n1)C(=C1CCN([C@H]3CCN(C(=O)c4cc(C(F)(F)F)cc(C(F)(F)F)c4)[C@H](Cc4ccccc4)C3)CC1)c1ccn(C)c1CC2 (relative stereo) [Compound 60]	89.9%
Cc1ccc2c(c1)CCn1ccnc1C2=C1CCN([C@H]2CCN(C(=O)c3cc(C(F)(F)F)cc(C(F)(F)F)c3)[C@H](Cc3ccccc3)C2)CC1 (relative stereo) [Compound 51]	86.3%
Cc1cc(C)cc(C(=O)N2CCC(N3CCC(=C4c5ccn(C)c5CCn5cc(C)nc54)CC3)CC2Cc2ccccc2)c1 (stereo not drawn) [Compound 30]	15.3%
Cc1cc(C)cc(C(=O)N2CC[C@H](N3CCC(=C4c5ccccc5CCn5c(Cl)cnc54)CC3)C[C@H]2Cc2ccccc2)c1 (relative stereo) [Compound 44]	63.9%
O=C(c1ccc2ccccc2c1)N1CC[C@@H](N2CCC(=C3c4ccccc4CCn4ccnc43)CC2)C[C@@H]1Cc1ccccc1 (relative stereo) [Compound 78]	7.5%

Compound	% inhibition of the response to 10^-9 M substance P
O=C(c1cc(C(F)(F)F)cc(C(F)(F)F)c1)N1CC[C@H](N2CCC(=C3c4ccccc4CCn4c3nc(CO)c4CO)CC2)C[C@H]1Cc1ccccc1 (relative stereo) [Compound 49]	52.5%
Cc1cc(C)cc(C(=O)N2CC[C@H](N3CCC(=C4c5ccc(C)cc5CCn5ccnc54)CC3)C[C@H]2Cc2ccccc2)c1 (relative stereo) [Compound 57]	66.7%
O=C(c1ccc2ncsc2c1)N1CC[C@@H](N2CCC(C3c4ccccc4Cn4c3nc3ccccc34)CC2)C[C@@H]1Cc1ccccc1 (stereo partly drawn) [Compound 102]	17%
O=C(c1cc(C(F)(F)F)cc(C(F)(F)F)c1)N1CCC(N2CCC(=C3c4ccc(Cl)cc4CCn4ccnc43)CC2)CC1Cc1ccccc1 (stereo not drawn) [Compound 32]	71.6%
O=C(c1ccccc1)N1CCC(N2CCC(C3c4ccccc4Cn4c3nc3ccccc34)CC2)CC1Cc1ccccc1 (stereo not drawn) [Compound 73]	2.8%
Cc1cn2c(n1)C(=C1CCN([C@H]3CCN(C(=O)c4cc(C(F)(F)F)cc(C(F)(F)F)c4)[C@@H](Cc4ccccc4)C3)CC1)c1ccn(C)c1CC2 (relative stereo) [Compound 59]	76.5%
O=C(c1cc2ccccc2s1)N1CCC(N2CCC(C3c4ccccc4Cn4c3nc3ccccc34)CC2)CC1Cc1ccccc1 (stereo not drawn) [Compound 94]	8.2%
O=C(c1ccc2ccccc2c1)N1CC[C@H](N2CCC(=C3c4ccccc4CCn4ccnc43)CC2)C[C@@H]1Cc1ccccc1 (relative stereo) [Compound 84]	2.4%
Cc1cc(C(=O)N2CC[C@@H](N3CCC(C4c5ccccc5Cn5c4nc4ccccc45)CC3)C[C@@H]2Cc2ccccc2)no1 (stereo partly drawn) [Compound 97]	5.8%
O=C(c1cc(C(F)(F)F)cc(C(F)(F)F)c1)N1CC[C@@H](N2CCC(=C3c4ccccc4CCn4ccnc43)CC2)C[C@H]1Cc1ccccc1 (relative stereo) [Compound 23]	13.4%
O=C(c1ccccc1)N1CC[C@@H](N2CCC(C3c4ccccc4Cn4c3nc3ccccc34)CC2)C[C@@H]1Cc1ccccc1 (stereo partly drawn) [Compound 75]	13.7%
O=C(Nc1cc(C(F)(F)F)cc(C(F)(F)F)c1)N1CC[C@@H](N2CCC(C3c4ccccc4Cn4c3nc3ccccc34)CC2)C[C@@H]1Cc1ccccc1 (stereo partly drawn) [Compound 100]	13.9%
Cc1cc(C)cc(C(=O)N2CC[C@H](N3CCC(=C4c5ccc(C)cc5CCn5ccnc54)CC3)C[C@@H]2Cc2ccccc2)c1 (relative stereo) [Compound 56]	9.5%
COC(=O)c1cnc2n1CCc1ccccc1C2=C1CCN([C@H]2CCN(C(=O)c3cc(C)cc(C)c3)[C@@H](Cc3ccccc3)C2)CC1 (relative stereo) [Compound 40]	8.4%
Cc1cc(C)cc(C(=O)N2CCC(N3CCC(=C4c5ccccc5OCn5ccnc54)CC3)CC2Cc2ccccc2)c1 (stereo not drawn) [Compound 104]	83.0%
Cc1cc(C)cc(C(=O)N2CCC(N3CCC(=C4c5ccc(Cl)cc5CCn5ccnc54)CC3)CC2Cc2ccccc2)c1 (stereo not drawn) [Compound 31]	82.7%
